Measurements from ChEMBL document CHEMBL5370593, “Discovery and In Vitro Characterization of SPL028: Deuterated N,N-Dimethyltryptamine” (ACS Med Chem Lett, 2023).

What was measured:
[1] = Displacement of [3H] idazoxan from imidazoline receptor 2 (unknown origin) assessed as inhibition constant by spectrophotometric analysis; parameters: species or system Homo sapiens
[2] = target: T1, Alpha-1B adrenergic receptor (Homo sapiens, UniProt P35368); assay: Displacement of [3H] prazosin from human recombinant adrenergic alpha-1b receptor expressed in […] cells assessed as inhibition constant incubated for 60 mins by spectrophotometric analysis; format: cell-based
T1 sequence (P35368 whole entry): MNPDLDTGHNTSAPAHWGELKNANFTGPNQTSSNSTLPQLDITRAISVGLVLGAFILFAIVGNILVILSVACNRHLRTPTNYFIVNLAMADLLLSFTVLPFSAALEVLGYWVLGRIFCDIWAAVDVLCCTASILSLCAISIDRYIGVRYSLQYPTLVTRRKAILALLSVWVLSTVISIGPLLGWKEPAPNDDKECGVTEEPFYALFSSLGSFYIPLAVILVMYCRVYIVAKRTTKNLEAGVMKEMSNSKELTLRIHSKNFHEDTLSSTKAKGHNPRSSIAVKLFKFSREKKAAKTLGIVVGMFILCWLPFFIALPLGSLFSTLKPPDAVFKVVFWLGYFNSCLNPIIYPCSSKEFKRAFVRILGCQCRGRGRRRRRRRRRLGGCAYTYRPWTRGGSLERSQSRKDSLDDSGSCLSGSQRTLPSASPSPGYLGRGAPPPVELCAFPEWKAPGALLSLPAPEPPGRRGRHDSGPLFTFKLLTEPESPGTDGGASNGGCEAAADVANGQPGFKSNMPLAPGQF

MAO-A = MAO-A (Homo sapiens, UniProt P21397); assay: Inhibition of human recombinant MAO-A expressed in insect cells assessed as inhibition of 4-hydroxyquinoline formation at 10 uM using kynuramine as substrate incubated for 75 mins by spectrophotometric analysis relative to control; parameters: species or system Insect cell; conditions: probe kynuramine
[3] = target: Alpha-1B adrenergic receptor (Homo sapiens) (UniProt P35368); assay: Displacement of [3H] prazosin from human recombinant adrenergic alpha-1b receptor expressed in […] cells at 10 uM incubated for 60 mins by spectrophotometric analysis relative to control; format: cell-based
[4] = target: 5-hydroxytryptamine receptor 1B (Homo sapiens, UniProt P28222); assay: Displacement of [3H] GR125743 from human recombinant 5-HT1B receptor expressed in […] cells assessed as inhibition constant incubated for 90 mins by spectrophotometric analysis; format: cell-based
[5] = target: 5-hydroxytryptamine receptor 5A (Homo sapiens, UniProt P47898); assay: Displacement of [3H] LSD from human recombinant 5-HT5A receptor expressed in CHO-K1 cells incubated for 60 mins by spectrophotometric analysis; format: cell-based
[6] = target: T2, Alpha-2A adrenergic receptor (Homo sapiens, UniProt P08913); assay: Displacement of [3H]-rauwolscine from human recombinant adrenergic alpha-2A receptor expressed in CHO-K1 cells assessed as inhibition constant incubated for 60 mins by spectrophotometric analysis; format: cell-based
T2 sequence (P08913 whole entry): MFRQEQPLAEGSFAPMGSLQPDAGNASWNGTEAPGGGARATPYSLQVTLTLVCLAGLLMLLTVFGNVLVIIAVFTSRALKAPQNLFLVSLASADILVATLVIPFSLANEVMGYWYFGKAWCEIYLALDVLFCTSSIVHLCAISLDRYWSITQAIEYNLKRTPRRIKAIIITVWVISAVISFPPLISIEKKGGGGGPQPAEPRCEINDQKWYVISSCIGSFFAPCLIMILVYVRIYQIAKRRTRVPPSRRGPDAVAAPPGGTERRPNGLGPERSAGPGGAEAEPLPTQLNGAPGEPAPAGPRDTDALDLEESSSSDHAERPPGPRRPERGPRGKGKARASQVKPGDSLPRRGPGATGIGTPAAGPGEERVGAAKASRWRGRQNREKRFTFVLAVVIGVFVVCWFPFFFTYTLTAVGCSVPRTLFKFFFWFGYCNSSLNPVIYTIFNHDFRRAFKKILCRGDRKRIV

[7] = target: Histamine H1 receptor (Homo sapiens) (UniProt P35367); assay: Displacement of [3H] pyrilamine from human recombinant histamine H1 receptor expressed in CHO-K1 cells at 10 uM incubated for 180 mins by spectrophotometric analysis relative to control; format: cell-based
[8] = target: T1, Alpha-1B adrenergic receptor; assay: Displacement of [3H] prazosin from human recombinant adrenergic alpha-1b receptor expressed in […] cells incubated for 60 mins by spectrophotometric analysis; format: cell-based
[9] = target: T3, Alpha-1D adrenergic receptor (Homo sapiens, UniProt P25100); assay: Displacement of [3H] prazosin from human recombinant adrenergic alpha-1d receptor expressed in HEK293 cells assessed as inhibition constant incubated for 60 mins by spectrophotometric analysis; format: cell-based
T3 sequence (P25100 whole entry): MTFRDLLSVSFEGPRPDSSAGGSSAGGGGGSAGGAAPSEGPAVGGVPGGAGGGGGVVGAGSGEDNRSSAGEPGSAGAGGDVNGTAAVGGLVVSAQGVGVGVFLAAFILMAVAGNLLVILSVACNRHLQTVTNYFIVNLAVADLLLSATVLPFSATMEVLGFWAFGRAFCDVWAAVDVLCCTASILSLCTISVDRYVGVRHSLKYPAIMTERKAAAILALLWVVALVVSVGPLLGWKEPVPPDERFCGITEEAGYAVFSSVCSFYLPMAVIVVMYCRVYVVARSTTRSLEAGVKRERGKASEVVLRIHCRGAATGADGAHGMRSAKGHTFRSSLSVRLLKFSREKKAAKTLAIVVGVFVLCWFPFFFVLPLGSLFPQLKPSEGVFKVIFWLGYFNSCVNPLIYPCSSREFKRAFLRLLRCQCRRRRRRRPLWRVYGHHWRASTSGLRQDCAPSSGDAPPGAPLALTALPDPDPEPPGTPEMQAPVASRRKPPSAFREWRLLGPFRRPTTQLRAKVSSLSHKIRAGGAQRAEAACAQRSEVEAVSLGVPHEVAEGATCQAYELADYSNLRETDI

[10] = target: Neuronal acetylcholine receptor; alpha3/beta4 (Homo sapiens, UniProt P30926+P32297); assay: Displacement of [125I]-epibatidine from human recombinant nAChR alpha3beta4 receptor expressed in CHO-K1 cells incubated for 60 mins by spectrophotometric analysis; format: cell-based
[11] = target: 5-hydroxytryptamine receptor 6 (Homo sapiens, UniProt P50406); assay: Displacement of [3H] LSD from human recombinant 5-HT6 receptor expressed in human HeLa cells incubated for 120 mins by spectrophotometric analysis; format: cell-based
[12] = target: Alpha-2B adrenergic receptor (Homo sapiens) (UniProt P18089); assay: Displacement of [3H]-rauwolscine from human recombinant adrenergic alpha-2b receptor expressed in […] cells at 10 uM incubated for 60 mins by […] relative to control; format: cell-based
[13] = Distribution coefficient, mean logD of compound at pH 7.4 in octanol and aqueous solution incubated for 95 mins under shaking condition by LC-MS/MS analysis; format: physicochemical
[14] = target: Alpha-2A adrenergic receptor (Homo sapiens) (UniProt P08913); assay: Displacement of [3H]-rauwolscine from human recombinant adrenergic alpha-2A receptor expressed in CHO-K1 cells at 10 uM incubated for 60 mins by spectrophotometric analysis relative to control; format: cell-based

Sequence of Alpha-2B adrenergic receptor (Homo sapiens) (P18089 whole entry): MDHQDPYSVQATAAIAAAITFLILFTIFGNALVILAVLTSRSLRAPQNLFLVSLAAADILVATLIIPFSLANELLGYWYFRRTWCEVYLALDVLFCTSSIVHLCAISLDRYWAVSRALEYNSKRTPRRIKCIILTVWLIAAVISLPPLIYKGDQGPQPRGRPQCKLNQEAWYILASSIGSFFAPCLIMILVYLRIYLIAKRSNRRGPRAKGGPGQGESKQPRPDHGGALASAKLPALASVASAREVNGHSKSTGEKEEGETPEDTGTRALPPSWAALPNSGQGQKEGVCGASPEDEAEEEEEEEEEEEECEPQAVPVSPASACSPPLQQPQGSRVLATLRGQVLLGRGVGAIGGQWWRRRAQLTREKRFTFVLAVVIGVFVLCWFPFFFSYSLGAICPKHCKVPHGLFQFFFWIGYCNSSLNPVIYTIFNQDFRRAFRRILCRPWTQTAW
Sequence of Neuronal acetylcholine receptor; alpha3/beta4 (P30926 whole entry): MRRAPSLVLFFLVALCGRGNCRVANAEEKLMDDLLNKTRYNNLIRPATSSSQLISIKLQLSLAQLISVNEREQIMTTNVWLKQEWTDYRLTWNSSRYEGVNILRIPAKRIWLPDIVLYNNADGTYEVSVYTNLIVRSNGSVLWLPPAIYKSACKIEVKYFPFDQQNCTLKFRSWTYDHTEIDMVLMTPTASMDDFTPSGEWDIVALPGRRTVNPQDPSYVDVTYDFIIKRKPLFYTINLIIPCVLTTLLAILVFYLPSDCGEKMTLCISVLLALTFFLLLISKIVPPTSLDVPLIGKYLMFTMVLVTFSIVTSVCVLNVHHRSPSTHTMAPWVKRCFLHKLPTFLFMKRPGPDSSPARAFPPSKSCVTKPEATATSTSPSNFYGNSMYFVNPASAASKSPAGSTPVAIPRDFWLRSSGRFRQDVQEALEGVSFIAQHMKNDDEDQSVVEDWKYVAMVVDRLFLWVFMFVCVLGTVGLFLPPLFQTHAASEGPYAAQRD
Sequence of Neuronal acetylcholine receptor; alpha3/beta4 (P32297 whole entry): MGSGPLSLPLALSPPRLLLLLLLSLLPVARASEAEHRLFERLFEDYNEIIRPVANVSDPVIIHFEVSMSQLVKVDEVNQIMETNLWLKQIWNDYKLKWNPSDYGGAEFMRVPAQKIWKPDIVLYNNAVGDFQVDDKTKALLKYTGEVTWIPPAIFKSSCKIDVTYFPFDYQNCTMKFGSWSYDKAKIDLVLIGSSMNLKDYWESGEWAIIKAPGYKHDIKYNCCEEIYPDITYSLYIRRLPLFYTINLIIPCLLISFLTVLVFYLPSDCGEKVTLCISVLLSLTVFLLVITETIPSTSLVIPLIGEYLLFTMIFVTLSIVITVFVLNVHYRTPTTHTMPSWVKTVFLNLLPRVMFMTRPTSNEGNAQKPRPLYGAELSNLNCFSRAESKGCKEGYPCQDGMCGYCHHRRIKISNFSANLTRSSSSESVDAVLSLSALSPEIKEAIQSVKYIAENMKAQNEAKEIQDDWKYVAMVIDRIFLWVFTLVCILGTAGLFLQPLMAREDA
Sequence of 5-hydroxytryptamine receptor 1B (P28222 whole entry): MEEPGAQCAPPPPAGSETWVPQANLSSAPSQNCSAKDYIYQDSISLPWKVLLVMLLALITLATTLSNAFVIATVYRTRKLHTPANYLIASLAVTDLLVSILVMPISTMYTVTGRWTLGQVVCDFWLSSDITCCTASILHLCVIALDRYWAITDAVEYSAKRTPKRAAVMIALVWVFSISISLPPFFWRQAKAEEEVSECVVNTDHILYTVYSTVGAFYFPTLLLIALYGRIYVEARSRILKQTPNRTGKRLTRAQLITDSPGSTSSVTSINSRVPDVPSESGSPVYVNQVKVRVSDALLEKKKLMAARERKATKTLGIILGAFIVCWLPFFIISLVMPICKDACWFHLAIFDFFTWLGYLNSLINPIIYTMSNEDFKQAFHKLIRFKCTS
Sequence of 5-hydroxytryptamine receptor 5A (P47898 whole entry): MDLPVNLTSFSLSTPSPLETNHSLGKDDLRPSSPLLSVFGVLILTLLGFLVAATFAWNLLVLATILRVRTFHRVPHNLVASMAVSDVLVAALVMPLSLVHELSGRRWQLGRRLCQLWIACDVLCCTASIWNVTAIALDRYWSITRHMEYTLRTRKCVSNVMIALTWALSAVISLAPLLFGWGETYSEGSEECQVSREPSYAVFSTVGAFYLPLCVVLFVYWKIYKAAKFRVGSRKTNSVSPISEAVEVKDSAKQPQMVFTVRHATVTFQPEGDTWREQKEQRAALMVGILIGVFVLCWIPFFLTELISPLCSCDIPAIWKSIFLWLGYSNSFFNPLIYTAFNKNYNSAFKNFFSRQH
Sequence of MAO-A (P21397 whole entry): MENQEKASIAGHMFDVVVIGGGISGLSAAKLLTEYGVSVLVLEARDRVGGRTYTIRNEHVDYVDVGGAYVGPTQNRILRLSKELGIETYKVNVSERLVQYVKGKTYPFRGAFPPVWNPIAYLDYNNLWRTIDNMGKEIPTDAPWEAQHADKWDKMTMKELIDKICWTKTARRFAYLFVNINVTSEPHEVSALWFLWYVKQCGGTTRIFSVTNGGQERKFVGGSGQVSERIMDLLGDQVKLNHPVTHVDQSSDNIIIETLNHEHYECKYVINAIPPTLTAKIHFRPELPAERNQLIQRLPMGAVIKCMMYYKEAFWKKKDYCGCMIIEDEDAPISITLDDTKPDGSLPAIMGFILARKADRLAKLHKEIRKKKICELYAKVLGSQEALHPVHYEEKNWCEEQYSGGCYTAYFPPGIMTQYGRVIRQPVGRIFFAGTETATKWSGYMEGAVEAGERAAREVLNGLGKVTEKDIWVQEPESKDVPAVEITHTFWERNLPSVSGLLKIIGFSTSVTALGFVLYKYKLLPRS
Sequence of Histamine H1 receptor (Homo sapiens) (P35367 whole entry): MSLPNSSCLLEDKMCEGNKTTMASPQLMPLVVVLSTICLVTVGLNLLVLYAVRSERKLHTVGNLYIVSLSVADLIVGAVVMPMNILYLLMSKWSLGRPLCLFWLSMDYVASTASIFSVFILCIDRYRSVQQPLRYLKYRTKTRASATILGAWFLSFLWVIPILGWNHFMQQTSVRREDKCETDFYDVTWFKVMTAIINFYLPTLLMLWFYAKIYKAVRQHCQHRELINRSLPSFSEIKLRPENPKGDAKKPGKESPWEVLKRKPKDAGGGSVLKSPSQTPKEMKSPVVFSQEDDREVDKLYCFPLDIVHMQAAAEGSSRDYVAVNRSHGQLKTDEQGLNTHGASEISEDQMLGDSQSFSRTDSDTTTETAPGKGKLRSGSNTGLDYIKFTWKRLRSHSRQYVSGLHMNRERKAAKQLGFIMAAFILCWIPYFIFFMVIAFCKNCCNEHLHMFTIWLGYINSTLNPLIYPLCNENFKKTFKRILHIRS
Sequence of 5-hydroxytryptamine receptor 6 (P50406 whole entry): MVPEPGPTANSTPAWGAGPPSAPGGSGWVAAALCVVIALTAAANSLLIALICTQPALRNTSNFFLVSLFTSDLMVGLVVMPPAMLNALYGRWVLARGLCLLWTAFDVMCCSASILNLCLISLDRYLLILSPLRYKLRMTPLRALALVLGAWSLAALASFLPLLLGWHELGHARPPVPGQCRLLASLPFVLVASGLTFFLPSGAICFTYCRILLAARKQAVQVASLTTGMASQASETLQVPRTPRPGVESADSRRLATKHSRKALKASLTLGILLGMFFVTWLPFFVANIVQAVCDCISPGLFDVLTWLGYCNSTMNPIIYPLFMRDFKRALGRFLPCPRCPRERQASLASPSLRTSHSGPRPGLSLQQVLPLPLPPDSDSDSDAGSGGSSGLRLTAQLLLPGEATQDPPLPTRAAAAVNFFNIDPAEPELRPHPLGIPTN

Row | Compound | Ki [1] [nM] | Ki [2] [nM] | inhibition at 1.25 h, 10 µM (MAO-A) [%] | inhibition [3] [%] | inhibition ([3]; tested as the 2H-labelled form) [%] | Ki [4] [nM] | IC50 [5] [µM] | Ki [6] [nM] | inhibition [7] [%] | inhibition ([7]; tested as the 2H-labelled form) [%] | IC50 [8] [nM] | Ki [9] [nM] | IC50 [10] [µM] | IC50 [11] [nM] | inhibition [12] [%] | inhibition ([12]; tested as the 2H-labelled form) [%] | logD at 1.583 h [13] | inhibition [14] [%] | inhibition ([14]; tested as the 2H-labelled form) [%]
1 | CN(C)CCc1c[nH]c2ccccc12.O=C(O)/C=C/C(=O)O | 1290 | 260 | 85.3 | 85.8 | 87.2 | 1840 | 3.32 | 1110 | 88.8 | 91.4 | 670 | 1510 | 4.2 | 1210 | 81.1 | 79.8 | 0.15 | 67.1 | 69.1
2 | O=C(O)/C=C/C(=O)O.[2H]C([2H])(Cc1c[nH]c2ccccc12)N(C)C | 1730 | 370 | 84.3 |  |  | 1520 | 3.32 | 1520 |  |  | 930 | 1600 | 4.4 | 1080 |  |  | 0.11 |  | 
